Assays:
Assay type in all cases: in vivo
Birdseye Speedwell [1] = assay: pre-emergence herbicide test; details: pre-emergence, 0.25 lb/A; read-out: % plant inhibition
Outline: (§1)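 Percent inhibition of emergence and growth was recorded roughly 14 days after seeding. Compound was incorporated into, or applied onto, a topsoil cover layer over seeds in pans kept in a greenhouse and watered from below.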

Barnyardgrass [2] = assay: pre-emergence herbicide test; details: Echinochloa crus-galli, pre-emergence, 0.25 lb/A; read-out: % plant inhibition
Outline: as §1

Downy Brome [3] = assay: pre-emergence herbicide test; details: Bromus tectorum, pre-emergence, 0.25 lb/A; read-out: % plant inhibition
Outline: as §1

Bedstraw Catchweed [4] = assay: pre-emergence herbicide test; details: Galium aparine, pre-emergence, 0.25 lb/A; read-out: % plant inhibition
Outline: as §1

Morning Glory [5] = assay: pre-emergence herbicide test; details: Ipomoea, pre-emergence, 0.25 lb/A; read-out: % plant inhibition
Outline: as §1

Soybean [6] = assay: pre-emergence herbicide test; details: Glycine max, pre-emergence, 0.25 lb/A; read-out: % plant inhibition
Outline: as §1

Velvetleaf [7] = assay: pre-emergence herbicide test; details: Abutilon theophrasti, pre-emergence, 0.25 lb/A; read-out: % plant inhibition
Outline: as §1

Seedling Johnsongrass [8] = assay: pre-emergence herbicide test; details: Sorghum halepense, pre-emergence, 0.25 lb/A; read-out: % plant inhibition
Outline: as §1

Giant Foxtail [9] = assay: pre-emergence herbicide test; details: Setaria faberi, pre-emergence, 0.25 lb/A; read-out: % plant inhibition
Outline: as §1

Blackgrass [10] = assay: pre-emergence herbicide test; details: Alopecurus myosuroides, pre-emergence, 0.25 lb/A; read-out: % plant inhibition
Outline: as §1

Rape [11] = assay: pre-emergence herbicide test; details: pre-emergence, 0.25 lb/A; read-out: % plant inhibition
Outline: as §1

Corn [12] = assay: pre-emergence herbicide test; details: Zea mays, pre-emergence, 0.25 lb/A; read-out: % plant inhibition
Outline: as §1

Green Foxtail [13] = assay: pre-emergence herbicide test; details: Setaria viridis, pre-emergence; 0.25 lb/A; read-out: % plant inhibition
Outline: as §1

Wheat [14] = assay: pre-emergence herbicide test; details: Triticum aestivum, pre-emergence, 0.25 lb/A; read-out: % plant inhibition
Outline: as §1

Common Chickweed [15] = assay: pre-emergence herbicide test; details: pre-emergence, 0.25 lb/A; read-out: % plant inhibition
Outline: as §1

Cocklebur [16] = assay: pre-emergence herbicide test; details: Xanthium strumarium, pre-emergence, 0.25 lb/A; read-out: % plant inhibition
Outline: as §1

Wild Oats [17] = assay: pre-emergence herbicide test; details: Avena fatua, pre-emergence, 0.25 lb/A; read-out: % plant inhibition
Outline: as §1

Birdseye Speedwell [18] = assay: post-emergence herbicide test; details: post-emergence, 0.25 lb/A; read-out: % plant inhibition
Outline: (§2)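 Greenhouse pot test: seeds pressed into compacted topsoil in pans, covered, watered as needed; at two to three weeks plants were sprayed by atomizer at 170.3 kPa, 1870 L/Ha, with about 0.4% v/v emulsifier. Value is percent inhibition per species.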

Barnyardgrass [19] = assay: post-emergence herbicide test; details: Echinochloa crus-galli, post-emergence, 0.25 lb/A; read-out: % plant inhibition
Outline: as §2

Downy Brome [20] = assay: post-emergence herbicide test; details: Bromus tectorum, post-emergence, 0.25 lb/A; read-out: % plant inhibition
Outline: as §2

Bedstraw Catchweed [21] = assay: post-emergence herbicide test; details: Galium aparine, post-emergence, 0.25 lb/A; read-out: % plant inhibition
Outline: as §2

Morning Glory [22] = assay: post-emergence herbicide test; details: Ipomoea, post-emergence, 0.25 lb/A; read-out: % plant inhibition
Outline: as §2

Soybean [23] = assay: post-emergence herbicide test; details: Glycine max, post-emergence, 0.25 lb/A; read-out: % plant inhibition
Outline: as §2

Velvetleaf [24] = assay: post-emergence herbicide test; details: Abutilon theophrasti, post-emergence, 0.25 lb/A; read-out: % plant inhibition
Outline: as §2

Seedling Johnsongrass [25] = assay: post-emergence herbicide test; details: Sorghum halepense, post-emergence, 0.25 lb/A; read-out: % plant inhibition
Outline: as §2

Giant Foxtail [26] = assay: post-emergence herbicide test; details: Setaria faberi, post-emergence, 0.25 lb/A; read-out: % plant inhibition
Outline: as §2

Blackgrass [27] = assay: post-emergence herbicide test; details: Alopecurus myosuroides, post-emergence, 0.25 lb/A; read-out: % plant inhibition
Outline: as §2

Rape [28] = assay: post-emergence herbicide test; details: post-emergence, 0.25 lb/A; read-out: % plant inhibition
Outline: as §2

Corn [29] = assay: post-emergence herbicide test; details: Zea mays, post-emergence, 0.25 lb/A; read-out: % plant inhibition
Outline: as §2

Green Foxtail [30] = assay: post-emergence herbicide test; details: Setaria viridis, post-emergence, 0.25 lb/A; read-out: % plant inhibition
Outline: as §2

Wheat [31] = assay: post-emergence herbicide test; details: Triticum aestivum, post-emergence, 0.25 lb/A; read-out: % plant inhibition
Outline: as §2

Common Chickweed [32] = assay: post-emergence herbicide test; details: post-emergence, 0.25 lb/A; read-out: % plant inhibition
Outline: as §2

Cocklebur [33] = assay: post-emergence herbicide test; details: Xanthium strumarium, post-emergence, 0.25 lb/A; read-out: % plant inhibition
Outline: as §2

Wild Oats [34] = assay: post-emergence herbicide test; details: Avena fatua, post-emergence, 0.25 lb/A; read-out: % plant inhibition
Outline: as §2

Row | Structure (SMILES) | inhibition at 280.212 g/ha (Birdseye Speedwell [1]) | inhibition at 280.212 g/ha (Barnyardgrass [2]) | inhibition at 280.212 g/ha (Downy Brome [3]) | inhibition at 280.212 g/ha (Bedstraw Catchweed [4]) | inhibition at 280.212 g/ha (Morning Glory [5]) | inhibition at 280.212 g/ha (Soybean [6]) | inhibition at 280.212 g/ha (Velvetleaf [7]) | inhibition at 280.212 g/ha (Seedling Johnsongrass [8]) | inhibition at 280.212 g/ha (Giant Foxtail [9]) | inhibition at 280.212 g/ha (Blackgrass [10]) | inhibition at 280.212 g/ha (Rape [11]) | inhibition at 280.212 g/ha (Corn [12]) | inhibition at 280.212 g/ha (Green Foxtail [13]) | inhibition at 280.212 g/ha (Wheat [14]) | inhibition at 280.212 g/ha (Common Chickweed [15]) | inhibition at 280.212 g/ha (Cocklebur [16]) | inhibition at 280.212 g/ha (Wild Oats [17]) | inhibition at 280.212 g/ha (Birdseye Speedwell [18]) | inhibition at 280.212 g/ha (Barnyardgrass [19]) | inhibition at 280.212 g/ha (Downy Brome [20]) | also measured
1 | Cc1cc(-c2nn(C)c(C(F)(F)F)c2C)c(O)cc1Cl [Compound 16] | 100% | 0% | 20% | 45% | 0% | 0% | 0% | 0% | 0% | 15% | 55% | 0% | 10% | 0% | 95% | 0% | 20% | 30% | 0% | 0% | inhibition at 280.212 g/ha (Bedstraw Catchweed [21]): 25%; inhibition at 280.212 g/ha (Morning Glory [22]): 5%; inhibition at 280.212 g/ha (Soybean [23]): 0%; inhibition at 280.212 g/ha (Velvetleaf [24]): 0%; inhibition at 280.212 g/ha (Seedling Johnsongrass [25]): 0%; inhibition at 280.212 g/ha (Giant Foxtail [26]): 0%; inhibition at 280.212 g/ha (Blackgrass [27]): 5%; inhibition at 280.212 g/ha (Rape [28]): 0%; inhibition at 280.212 g/ha (Corn [29]): 0%; inhibition at 280.212 g/ha (Green Foxtail [30]): 0%; inhibition at 280.212 g/ha (Wheat [31]): 0%; inhibition at 280.212 g/ha (Common Chickweed [32]): 50%; inhibition at 280.212 g/ha (Cocklebur [33]): 0%; inhibition at 280.212 g/ha (Wild Oats [34]): 0%
2 | Cc1c(-c2cc(C(=O)NC(C)C)c(Cl)cc2F)nn(C)c1C(F)(F)F [Compound 22] | 100% | 95% | 40% | 100% | 5% | 25% | 40% | 97% | 98% | 85% | 90% | 5% | 100% | 6% | 100% | 25% | 85% | 40% | 30% | 15% | inhibition at 280.212 g/ha (Bedstraw Catchweed [21]): 45%; inhibition at 280.212 g/ha (Morning Glory [22]): 40%; inhibition at 280.212 g/ha (Soybean [23]): 50%; inhibition at 280.212 g/ha (Velvetleaf [24]): 90%; inhibition at 280.212 g/ha (Seedling Johnsongrass [25]): 60%; inhibition at 280.212 g/ha (Giant Foxtail [26]): 75%; inhibition at 280.212 g/ha (Blackgrass [27]): 5%; inhibition at 280.212 g/ha (Rape [28]): 10%; inhibition at 280.212 g/ha (Corn [29]): 5%; inhibition at 280.212 g/ha (Green Foxtail [30]): 20%; inhibition at 280.212 g/ha (Wheat [31]): 0%; inhibition at 280.212 g/ha (Common Chickweed [32]): 40%; inhibition at 280.212 g/ha (Cocklebur [33]): 65%; inhibition at 280.212 g/ha (Wild Oats [34]): 10%

From patent publication US5672715A, “Herbicidal substituted 3-aryl-pyrazoles” (Monsanto Company, priority 1995, dated 1997)
